According to patent publication US20060069132A1, “Azolecarboxamide herbicides” (priority 2004, published 2006):

What was measured:
barnyardgrass [1] = experiment: Test B pre-/postemergence herbicide test; format: in vivo, Echinochloa crus-galli
Procedure, shortened: (§1)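 Plants compared with untreated controls 13–15 days post-treatment and given a visual 0–100 injury score. Applications: preemergence to seeds; postemergence at 1- to 4-leaf (2–18 cm); paddy species flooded, 2-leaf stage. Vehicle non-phytotoxic, surfactant included.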

cocklebur = experiment: Test B pre-/postemergence herbicide test; format: in vivo, Xanthium strumarium
Procedure, shortened: as §1

blackgrass = experiment: Test B postemergence herbicide test; format: in vivo, Alopecurus myosuroides; conditions: Postemergence, scale 0 (no effect) to 100 (complete control)
Procedure, shortened: (§2)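 Formulated test chemicals went onto postemergence plants measuring 2 to 18 cm, at one to four leaves. For the paddy assay, species had reached two leaves. Scoring took place 13–15 days later by eye, relative to untreated plants, using 0 for no effect up to 100 for full control.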

rice = experiment: Test B flooded paddy test; format: in vivo, Oryza sativa; conditions: 1000 g ai/ha, visual rating, scale 0 to 100 (0 no effect, 100 complete control), 13 to 15 days
Procedure, shortened: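 Postemergence plants were sprayed with formulated test chemicals at 2 to 18 cm height (1- to 4-leaf stage); paddy species were grown to the 2-leaf stage. After 13 to 15 days in a greenhouse, injury was rated visually against untreated controls on a 0–100 scale (0 = no effect, 100 = complete control).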

large crabgrass = experiment: Test B pre-/postemergence herbicide test; format: in vivo, Digitaria sanguinalis
Procedure, shortened: (§3)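 Response was scored visually 13 to 15 days after treatment against untreated greenhouse controls, 0 meaning no effect and 100 complete control. Formulations (solvent mixture plus surfactant) went onto soil after planting, onto foliage of 1- to 4-leaf plants, and onto 2-leaf plants in a flooded paddy set including rice and barnyardgrass.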

[2] = tested on: small flower umbrella sedge; experiment: Test B flooded paddy test; format: in vivo, Cyperus difformis; conditions: 1000 g ai/ha, visual rating, scale 0 to 100 (0 no effect, 100 complete control), 13 to 15 days
Procedure, shortened: as §2

wheat = experiment: Test B postemergence herbicide test; format: in vivo, Triticum aestivum; conditions: Postemergence, 500 g ai/ha; visual rating after 13 to 15 days, scale 0 (no effect) to 100 (complete control)
Procedure, shortened: (§4)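 Treated at 2-leaf (paddy) or 1–4-leaf, 2–18 cm (postemergence); greenhouse 13–15 d; visual score vs control, 0 none to 100 complete control; dash = not tested.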

corn = experiment: Test B pre-/postemergence herbicide test; format: in vivo, Zea mays
Procedure, shortened: as §3

wild oat = experiment: Test B postemergence herbicide test; format: in vivo, Avena fatua; conditions: Postemergence, scale 0 (no effect) to 100 (complete control)
Procedure, shortened: as §4

morningglory = experiment: Test B pre-/postemergence herbicide test; format: in vivo, Ipomoea coccinea
Procedure, shortened: as §1

barnyardgrass [3] = experiment: Test B flooded paddy test; format: in vivo, Echinochloa crus-galli; conditions: 1000 g ai/ha, visual rating, scale 0 to 100 (0 no effect, 100 complete control), 13 to 15 days
Procedure, shortened: as §2

ducksalad = experiment: Test B flooded paddy test; format: in vivo, Heteranthera limosa; conditions: 1000 g ai/ha, visual rating, scale 0 to 100 (0 no effect, 100 complete control), 13 to 15 days
Procedure, shortened: as §2

lambsquarters = experiment: Test B pre-/postemergence herbicide test; format: in vivo, Chenopodium album
Procedure, shortened: as §3

Surinam grass = experiment: Test B pre-/postemergence herbicide test; format: in vivo, Urochloa decumbens
Procedure, shortened: as §3

velvetleaf = experiment: Test B pre-/postemergence herbicide test; format: in vivo, Abutilon theophrasti
Procedure, shortened: as §3

[4] = Postemergence, 125 g ai/ha, scale 0 (no effect) to 100 (complete control)
[5] = Postemergence, 500 g ai/ha, visual rating after 13 to 15 days, scale 0 (no effect) to 100 (complete control)
[6] = Preemergence, 500 g ai/ha, scale 0 to 100
[7] = 500 g ai/ha, visual rating after 13 to 15 days
[8] = preemergence, 125 g ai/ha, 0 to 100 scale, 0 is no effect, 100 is complete control

`CCn1nc(C(C)(C)C)cc1C(=O)Nc1cccc(C(=O)NCCF)c1` [Compound 45] was tested, and the “Barnyardgrass plant response rating” value (barnyardgrass [1]; [4]) was 20, the “Plant response rating, Barnyardgrass” value (barnyardgrass [1]; [5]) was 30 and the “Barnyardgrass plant response rating” value (barnyardgrass [1]; [6]) was 100. For the same molecule, the “Cocklebur plant response rating” value (cocklebur; [4]) was 20, the “Plant response rating, Cocklebur” value (cocklebur; [5]) was 80 and the “Cocklebur plant response rating” value (cocklebur; [6]) was 80. The “Blackgrass plant response rating” value (blackgrass; 125 g ai/ha) was 10, the “Plant response rating, Blackgrass” value (blackgrass; [7]) was 20 and the “Rice plant response rating” value (rice) was 70. For the same molecule, the “Crabgrass, Large plant response rating” value (large crabgrass; [4]) was 30, the “Plant response rating, Crabgrass, Large” value (large crabgrass; [5]) was 30 and the “Crabgrass, Large plant response rating” value (large crabgrass; [6]) was 90. The “Sedge, Umbrella plant response rating” value [2] was 70, the “Plant response rating, Wheat” value (wheat) was 30 and the “Corn plant response rating” value (corn; [4]) was 20. The “Plant response rating, Corn” value (corn; [5]) was 30, the “Corn plant response rating” value (corn; [6]) was 30 and the “Oat, Wild plant response rating” value (wild oat; 125 g ai/ha) was 0. The “Plant response rating, Oat, Wild” value (wild oat; [7]) was 20, the “Morningglory plant response rating” value (morningglory; [4]) was 40 and the “Plant response rating, Morningglory” value (morningglory; [5]) was 90. The “Morningglory plant response rating” value (morningglory; [6]) was 30, the “Plant response rating, Morningglory” value (morningglory; [8]) was 10 and the “Barnyardgrass plant response rating” value (barnyardgrass [3]) was 80. For the same molecule, the “Ducksalad plant response rating” value (ducksalad) was 80, the “Lambsquarters plant response rating” value (lambsquarters; [4]) was 80 and the “Plant response rating, Lambsquarters” value (lambsquarters; [5]) was 90. The “Lambsquarters plant response rating” value (lambsquarters; [6]) was 100, the “Plant response rating, Lambsquarters” value (lambsquarters; [8]) was 100 and the “Plant response rating, Surinam Grass” value (Surinam grass; [5]) was 30. The “Surinam Grass plant response rating” value (Surinam grass; [6]) was 50, the “Plant response rating, Surinam Grass” value (Surinam grass; [8]) was 20 and the “Plant response rating, Velvetleaf” value (velvetleaf; [5]) was 70. For the same molecule, the “Velvetleaf plant response rating” value (velvetleaf; [6]) was 100 and the “Plant response rating, Velvetleaf” value (velvetleaf; [8]) was 20.
